The values that follow are results of earlier work, collected in paper PMC11978679, “Pyrazolyl amide-chalcones conjugates: Synthesis and antikinetoplastid activity” (Naunyn-Schmiedeberg's Archives of Pharmacology, 2024).

SMILES strings stand for the structures. Like-named read-outs stand apart in the source and are kept apart here.

Series [1] concerns promastigotes of L. aethiopica. To be noted: ref Bekhit et al. [2015]; cited from earlier work.
Series [2] has as its system amastigotes of L. aethiopica. Also on record: method as in Bekhit et al. [2015]. To be noted: ref Bekhit et al. [2015]; cited from earlier work.
Series [3] has as its system T. b. rhodesiense. Also noted: method as in Bhambra et al. [2017]. To be noted: ref Bhambra et al. [2017]; read-out: IC50 against T. b. rhodesiense; cited from earlier work.
The next series deals with L. amazonensis. Also noted: method as in Bernardino et al. [2006]. Conditions: ref Bernardino et al. [2006]; read-out: IC50 against L. amazonensis; cited from earlier work.
The test system of series [4] is T. b. rhodesiense. Also noted: method as in Agarwal et al. [2024]. To be noted: imidazo[1,2-a]pyridine-chalcones; ref Agarwal et al. [2024]; read-out: IC50 against T. b. rhodesiense; cited from earlier work.
For another series, the system named is L. panamensis. Also noted: method as in García et al. [2018]. To be noted: ref García et al. [2018]; read-out: EC50 against L. panamensis; cited from earlier work.
A further series concerns T. cruzi. Also noted: method as in García et al. [2018]. Conditions: ref García et al. [2018]; read-out: EC50 against T. cruzi; cited from earlier work.

For `CC(=O)C(C1=NN(C(C)=O)C(c2cn(-c3ccc(Br)cc3)nc2-c2ccc([N+](=O)[O-])cc2)S1)c1ccccc1` (stereo not shown) [III], the “IC50 against promastigotes of L. aethiopica” value in series [1] is recorded as 0.0142 µg/mL. Moreover, in series [2], the “IC50 against amastigotes of L. aethiopica” value is given as 0.13 µg/mL.

On to `O=C(/C=C/c1cccnc1)c1ccccc1Br` [IV], for which the IC50 with T. b. rhodesiense [3] was 380 nM. `O=[N+]([O-])c1ccc(N/N=C/c2cnn(-c3ccc(Br)cc3)c2)cc1` [I]: the IC50 in the series on L. amazonensis is 50000 nM. For the compound `O=C(/C=C/c1ccc(Br)cc1)c1ccc(NC(=O)c2cn3ccccc3n2)cc1` [VI], the IC50 in the series on T. b. rhodesiense [4] is 1130 nM. `CC(CCCCCCC[n+]1ccn(C)c1)Oc1ccc(C(=O)/C=C/c2ccco2)cc1` (stereo not shown) [V]: the figures for the EC50 in the series on L. panamensis and with T. cruzi were 780 nM and 660 nM, respectively.
